Here are results for ten sequences from patent US11795460B2, “Compositions and methods for TTR gene editing and treating ATTR amyloidosis” (Intellia Therapeutics, Inc., priority 2017, dated 2023).

For data set [1], the system named is TTR. The data set can be described thus: TTR editing in HEK293_Cas9 cells transfected with dgRNAs (Table 4). Type of data set: cell-based, human. Particulars: HEK293_Cas9 cells (constitutively express Spy Cas9) transfected with dgRNAs. The method in brief: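 Spy Cas9-expressing HEK293 cells were transfected by lipofection with crRNA (25 nM) plus trRNA (25 nM) and harvested at 24, 48 or 72 h. The target site was PCR-amplified and sequenced on MiSeq. Percent editing is reads with indels or substitutions over total reads.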

In data set [2] the test system is TTR. The data set can be described thus: TTR editing in HepG2 cells transfected with Spy Cas9 mRNA and dgRNAs (Table 6). It is filed as cell-based, human. The conditions noted are these: HepG2 cells co-transfected with Spy Cas9 mRNA (SEQ ID NO:2) and dgRNAs. In outline: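 HepG2 cells were transfected sequentially by lipofection with Spy Cas9 mRNA (100 ng), then crRNA plus tracer RNA (25 nM each), and harvested at 24, 48 or 72 h. Editing was measured by amplicon NGS at the TTR target site as the fraction of reads with indels or substitutions.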

Data set [3] has as its system TTR. Description: TTR editing in primary human hepatocytes electroporated with Spy Cas9 protein loaded with dgRNAs (Table 7). The conditions noted are these: dgRNA electroporated with Spy Cas9 protein (RNP). Type of data set: cell-based. The method in brief: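 Primary human or cynomolgus hepatocytes electroporated (Lonza P3 buffer, program EX-147) with Spy Cas9 RNP carrying pre-annealed crRNA/trRNA dual guides. Genomic DNA harvested at 24, 48 or 72 h; target amplicons sequenced by Illumina MiSeq. Percent editing = reads with indels or substitutions over total reads.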

The subject of data set [4] is TTR. The data set can be described thus: TTR editing in primary human hepatocytes transfected with Spy Cas9 protein (RNP) loaded with dgRNAs (Table 8). It is filed as cell-based. Particulars: dgRNA transfected with Spy Cas9 protein (RNP). In outline:
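Primary human hepatocytes were lipofected (RNAiMAX) with RNP of Spy Cas9 (10 nM) plus pre-annealed crRNA (10 nM) and trRNA (10 nM) and harvested 24, 48 or 72 h later. Target-site amplicons were sequenced on Illumina MiSeq and aligned to hg38; percent editing = reads with indels or substitutions over total reads.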

For “CCUCUGCAUGCUCAUGGAAU (tested as dual guide RNA, chemistry not given here) [CR003370]”, the “Avg % Deletion” value in the data set on TTR [1] worked out at 29.73%; in the data set on TTR [2], 3.62%; in the data set with TTR [3], 0.90%; with TTR [4] it was 1.26%. Besides, the “Avg % Edit” value in the data set on TTR [1] was 34.22%; in the data set on TTR [2] it was 28.51%; in the data set on TTR [3] it was 15.27%; in the data set on TTR [4], 20.06%. In addition, the “Avg % Insert” value is reported as 4.49% in the data set on TTR [1], 24.88% with TTR [2], 14.43% in the data set on TTR [3] and 18.80% in the data set with TTR [4].

As to “CUCUGCAUGCUCAUGGAAUG (tested as dual guide RNA, chemistry not given here) [CR003369]”, the “Avg % Deletion” value is 24.04% in the data set on TTR [1], 5.51% in the data set on TTR [2], 0.40% in the data set with TTR [3] and 1.31% in the data set with TTR [4]. Besides, the “Avg % Edit” value is listed as 33.10% with TTR [1], 22.62% with TTR [2], 3.67% in the data set on TTR [3] and 12.98% in the data set with TTR [4]. Further, the “Avg % Insert” value is given as 9.06% with TTR [1], 17.11% in the data set with TTR [2], 3.30% in the data set with TTR [3] and 11.67% in the data set with TTR [4].

As for “CUGAGGAGGAAUUUGUAGAA (tested as dual guide RNA, chemistry not given here) [CR003364]”, the “Avg % Deletion” value with TTR [1] was determined as 16.48%; with TTR [2], 20.85%; in the data set with TTR [3] it was 6.53%; in the data set with TTR [4] it was 11.36%. Further, the “Avg % Edit” value was 35.65% in the data set with TTR [1], 51.88% in the data set on TTR [2], 23.30% in the data set on TTR [3] and 35.29% in the data set with TTR [4]. For the same sequence, the “Avg % Insert” value is recorded as 19.17% in the data set with TTR [1], 31.03% in the data set on TTR [2], 16.93% with TTR [3] and 23.93% in the data set with TTR [4].

“CUGCUCCUCCUCUGCCUUGC (tested as dual guide RNA, chemistry not given here) [CR003335]”: the “Avg % Deletion” value with TTR [1] was 21.87%; in the data set with TTR [2], 4.23%; in the data set with TTR [3] it was 2.50%; with TTR [4], 1.63%. Moreover, the “Avg % Edit” value in the data set with TTR [1] was determined as 26.59%; in the data set with TTR [2], 37.19%; in the data set with TTR [3], 72.20%; with TTR [4], 51.14%. Also, the “Avg % Insert” value is listed as 4.73% in the data set on TTR [1], 32.96% with TTR [2], 69.70% with TTR [3] and 49.51% in the data set on TTR [4].

Consider “CUGGUAUUUGUGUCUGAGGC (tested as dual guide RNA, chemistry not given here) [CR003341]”, for which the “Avg % Deletion” value was 13.31% with TTR [1], 5.66% in the data set on TTR [2], 4.40% in the data set with TTR [3] and 5.02% with TTR [4]. Moreover, the “Avg % Edit” value stood at 20.04% with TTR [1], 15.60% in the data set with TTR [2], 11.43% in the data set with TTR [3] and 19.66% in the data set on TTR [4]. Also, the “Avg % Insert” value with TTR [1] worked out at 6.73%; with TTR [2], 9.94%; in the data set with TTR [3] it was 7.03%; with TTR [4], 14.64%.

For the sequence “CUUCUCUACACCCAGGGCAC (tested as dual guide RNA, chemistry not given here) [CR003342]”, the “Avg % Deletion” value in the data set on TTR [1] stood at 35.38%; with TTR [2], 0.28%; in the data set with TTR [3], 0.90%; in the data set with TTR [4] it was 0.81%. Also, the “Avg % Edit” value worked out at 36.57% with TTR [1], 11.06% with TTR [2], 32.77% in the data set on TTR [3] and 20.66% in the data set on TTR [4]. Further, the “Avg % Insert” value was 1.19% in the data set with TTR [1], 10.78% with TTR [2], 31.87% with TTR [3] and 19.85% with TTR [4].

As to “GAAAGGCUGCUGAUGACACC (tested as dual guide RNA, chemistry not given here) [CR003352]”, the “Avg % Deletion” value in the data set with TTR [1] came to 22.99%; in the data set with TTR [2] it was 4.77%; in the data set on TTR [3], 4.30%; in the data set with TTR [4] it was 3.21%. Also, the “Avg % Edit” value in the data set on TTR [1] is on record as 27.90%; in the data set on TTR [2], 44.28%; in the data set on TTR [3] it was 29.83%; in the data set with TTR [4], 30.48%. The “Avg % Insert” value in the data set with TTR [1] is recorded as 4.91%; in the data set on TTR [2] it was 39.51%; in the data set with TTR [3], 25.63%; in the data set with TTR [4], 27.27%.

In the case of “GACGACAGCCGUGGUGGAAU (tested as dual guide RNA, chemistry not given here) [CR003388]”, the “Avg % Deletion” value with TTR [1] amounted to 17.82%; in the data set with TTR [2] it was 1.56%; with TTR [3], 0.27%; with TTR [4] it was 1.05%. The “Avg % Edit” value with TTR [1] is 19.23%; with TTR [2], 9.33%; in the data set on TTR [3] it was 5.70%; with TTR [4], 5.43%. The “Avg % Insert” value in the data set with TTR [1] was 1.41%; in the data set with TTR [2], 7.76%; with TTR [3], 5.47%; with TTR [4], 4.38%.

On to “GCAACUUACCCAGAGGCAAA (tested as dual guide RNA, chemistry not given here) [CR003356]”, for which the “Avg % Deletion” value in the data set with TTR [1] turned out to be 22.19%; in the data set on TTR [2], 3.72%; in the data set on TTR [3] it was 2.23%; with TTR [4], 1.29%. For the same sequence, the “Avg % Edit” value amounted to 32.21% in the data set on TTR [1], 9.39% in the data set on TTR [2], 9.97% in the data set on TTR [3] and 7.53% in the data set on TTR [4]. The “Avg % Insert” value is recorded as 10.03% with TTR [1], 5.67% with TTR [2], 7.80% with TTR [3] and 6.24% with TTR [4].

“GCAGGGCGGCAAUGGUGUAG (tested as dual guide RNA, chemistry not given here) [CR003380]”: the “Avg % Deletion” value in the data set with TTR [1] was determined as 44.00%; with TTR [2] it was 2.30%; in the data set with TTR [3], 0.10%; with TTR [4], 0.46%. Further, the “Avg % Edit” value in the data set with TTR [1] was 47.64%; in the data set on TTR [2] it was 17.08%; with TTR [3], 5.37%; with TTR [4] it was 8.17%. Also, the “Avg % Insert” value in the data set on TTR [1] is reported as 3.64%; in the data set on TTR [2] it was 14.78%; in the data set with TTR [3], 5.27%; in the data set with TTR [4] it was 7.71%.
